Reference: ChEMBL document CHEMBL1201862, “PubChem BioAssay data set” (2004)
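Each compound was tested at five concentrations against cells in 96-well plates for 48 hours. The concentration for 50% growth inhibition is given as GI50.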 Calls of active or inactive are those of the source. Cut-off read from the data, not from the text of the source: active = GI50 up to about 1.1 µM and inactive = higher.

Legend:
Test in all cases: growth of human tumour cells (NCI), 48 h
HOP-62 = tested on: HOP-62
RPMI-8226 = tested on: RPMI-8226
SK-MEL-2 = tested on: SK-MEL-2
SN12C = tested on: SN12C
HCT-116 = tested on: HCT-116
UO-31 = tested on: UO-31
SF-268 = tested on: SF-268
SR = tested on: SR
NCI-H522 = tested on: NCI-H522
LOX IMVI = tested on: LOX IMVI
SK-MEL-28 = tested on: SK-MEL-28
HL-60 = tested on: HL-60
OVCAR-4 = tested on: OVCAR-4
NCI-H460 = tested on: NCI-H460
SNB-75 = tested on: SNB-75
RXF 393 = tested on: RXF 393
HOP-92 = tested on: HOP-92

Measured: GI50

CNc1ccc([N+](=O)[O-])c2c(NCCCN(C)C)ccnc12
inactive: HOP-62 > 100 µM | RPMI-8226 > 100 µM | SK-MEL-2 > 100 µM | SN12C > 100 µM | HCT-116 > 100 µM | UO-31 > 100 µM | SF-268 > 100 µM | SR > 100 µM | NCI-H522 > 100 µM | LOX IMVI > 100 µM | SK-MEL-28 > 100 µM | HL-60 > 100 µM | OVCAR-4 > 100 µM | NCI-H460 > 100 µM

CCOC(=O)c1ccc(/C(C)=N/NC(N)=S)cc1
inactive: HOP-62 > 100 µM | RPMI-8226 > 100 µM | SNB-75 > 100 µM | SN12C > 100 µM | HCT-116 > 100 µM | LOX IMVI > 100 µM | RXF 393 > 100 µM | HOP-92 > 100 µM | SK-MEL-28 > 100 µM | HL-60 > 100 µM | OVCAR-4 > 100 µM | NCI-H460 > 100 µM

Cc1nn(C)c(=O)c2nn(-c3ccccc3)c(C)c12
inactive: HOP-62 > 100 µM | RPMI-8226 > 100 µM | SK-MEL-2 > 100 µM | SNB-75 > 100 µM | SN12C > 100 µM | HCT-116 > 100 µM | UO-31 > 100 µM | SF-268 > 100 µM | SR > 100 µM | NCI-H522 > 100 µM | LOX IMVI > 100 µM | RXF 393 > 100 µM | SK-MEL-28 > 100 µM | HL-60 > 100 µM | OVCAR-4 > 100 µM | NCI-H460 > 100 µM

O=C(Cc1nc2ccccc2s1)Nc1cccc(C(F)(F)F)c1
inactive: HOP-62 17.9 µM | RPMI-8226 7.5 µM | SK-MEL-2 18.5 µM | SNB-75 13.7 µM | SN12C 16.1 µM | UO-31 14.5 µM | SF-268 14.8 µM | NCI-H522 14.1 µM | LOX IMVI 13.1 µM | RXF 393 18.2 µM | SK-MEL-28 15 µM | HL-60 3.59 µM | OVCAR-4 16.2 µM | NCI-H460 15.8 µM

O=C(/C=C(\O)C(=O)O)/C=C(\O)c1ccccc1
inactive: HOP-62 > 4.65 µM | SK-MEL-2 > 4.65 µM | SNB-75 > 4.65 µM | SN12C > 4.65 µM | HCT-116 > 4.65 µM | SF-268 > 4.65 µM | SR > 100 µM | LOX IMVI > 4.65 µM | RXF 393 > 100 µM | HL-60 > 4.65 µM | OVCAR-4 > 4.65 µM | NCI-H460 > 4.65 µM

O=C(CC(=O)Nc1ccccc1O)Nc1ccccc1O
inactive: HOP-62 80.9 µM | RPMI-8226 5.13 µM | SNB-75 18.6 µM | SN12C 16.3 µM | HCT-116 13.2 µM | UO-31 12.1 µM | SF-268 26.9 µM | NCI-H522 7.48 µM | HOP-92 > 100 µM | SK-MEL-28 13.8 µM | HL-60 1.83 µM | OVCAR-4 34.3 µM | NCI-H460 18.3 µM

c1ccc(C2N3CCCCC3[C@@H]3c4[nH]c5ccccc5c4CCN23)nc1 (stereo not given in full)
inactive: HOP-62 > 100 µM | RPMI-8226 > 100 µM | SK-MEL-2 > 100 µM | SNB-75 68.7 µM | SN12C > 100 µM | HCT-116 > 100 µM | UO-31 > 100 µM | SF-268 47.9 µM | RXF 393 33.3 µM | HOP-92 > 100 µM | SK-MEL-28 > 100 µM | HL-60 59.7 µM | OVCAR-4 > 100 µM | NCI-H460 > 100 µM

CCOC(=O)NC(=O)c1cn(CCCOC(=O)CCCCCCCCCCC(=O)OCCCn2cc(C(=O)NC(=O)OCC)c(=O)[nH]c2=O)c(=O)[nH]c1=O
inactive: HOP-62 > 100 µM | RPMI-8226 > 100 µM | SK-MEL-2 > 100 µM | SN12C > 100 µM | HCT-116 > 100 µM | UO-31 > 100 µM | SF-268 > 100 µM | SR > 100 µM | LOX IMVI > 100 µM | RXF 393 > 10 µM | HOP-92 > 100 µM | SK-MEL-28 > 100 µM | HL-60 > 100 µM | OVCAR-4 > 100 µM | NCI-H460 > 100 µM

FC(F)(F)P1C2C=CC(CC2)C1(F)F (stereo not given)
inactive: HOP-62 > 100 µM | RPMI-8226 > 100 µM | SK-MEL-2 > 100 µM | SNB-75 > 100 µM | SN12C > 100 µM | HCT-116 > 100 µM | UO-31 > 100 µM | SF-268 > 100 µM | NCI-H522 > 100 µM | LOX IMVI > 100 µM | RXF 393 > 100 µM | SK-MEL-28 > 100 µM | HL-60 > 100 µM | OVCAR-4 > 100 µM | NCI-H460 > 100 µM
